Results: patent publication US20140031227A1, “HERBICIDAL COMPOSITIONS COMPRISING 4-AMINO-3-CHLORO-5-FLUORO-6-(4-CHLORO-2-FLUORO-3-METHOXYPHENYL) PYRIDINE-2-CARBOXYLIC ACID OR A DERIVATIVE THEREOF AND GLYPHOSATE OR GLUFOSINATE” (DOW AGROSCIENCES LLC, priority 2012, published 2014)
Counter-ions that a name gives are not always drawn.

Tests used:
Type in all cases: in vivo
[1] = system: SORHA (Sorghum halepense (L.) Pers., johnsongrass); test: Example III postemergence foliar-applied mixtures, row crop weeds (corn, soybean), greenhouse: SORHA; details: glyphosate DMA salt (Durango DMA) alone
Experimental: (§1) Seeds or nutlets of the desired test plant species were planted in a soil matrix prepared by mixing a loam or sandy loam soil (e.g., 43 percent silt, 19 percent clay, and 38 percent sand, with a pH of about 8.1 and an organic matter content of about 1.5 percent) and calcareous grit in an 80 to 20 ratio. The soil matrix was contained in plastic pots with a surface area of 84.6 square centimters (cm^2) and a volume of 560 cubic centimeters (cm^3). […] The plants were grown for 7-31 days (d) in a greenhouse with an approximate 15 hour (h) photoperiod which was maintained at about 23-29° C. during the day and 22-28° C. during the night. Nutrients (Peters Excel® 15-5-15 5-Ca 2-Mg) and water were added on a regular basis and supplemental lighting was provided with overhead metal halide 1000-Watt lamps as necessary. The plants were employed for testing when they reached the first, second, or third true leaf stage.
Treatments consisted of the acid or esters of 4-amino-3-chloro-5-fluoro-6-(4-chloro-2-fluoro-3-methoxy-phenyl)pyridine-2-carboxylic acid (Compound A), each formulated as an
SC (suspension concentrate), and various herbicidal components alone and in combination. Forms of compound A were applied on an acid equivalent basis.
(§2) Other herbicidal components were applied on an acid equivalent or active ingredient basis and included the 5-enolpyruvylshikimate-3-phosphate synthase (EPSPS)-inhibiting herbicide, glyphosate dimethylamine salt, formulated as Durango DMA® and the glutamine synthase (GS)-inhibiting herbicide, glufosinate ammonium, formulated as Ignite® 280.
For treatments comprised of formulated compounds, measured amounts of compounds were placed individually in 25 mL glass vials and diluted in a volume of 1.5% (v/v) Agri-dex® crop oil concentrate to obtain 6× stock solutions. […] Application solutions were prepared by adding an appropriate amount of each stock solution (typically 2 mL) and diluted to the appropriate final concentrations with the addition of an aqueous mixture of 1.5% (v/v) crop oil concentrate and water so that the final spray solutions contained 1.25% (v/v) crop oil concentrate.
(§3) All stock solutions and applications solutions were visually inspected for compound compatibility prior to application. Compound requirements are based upon a 12 mL application volume at a rate of 187 liters per hectare (L/ha). Formulated compounds were applied to the plant material with an overhead Mandel track sprayer equipped with 8002E nozzles calibrated to deliver 187 L/ha over an application area of 0.503 square meters (m^2) at a spray height of 18 to 20 inches (46 to 50 cm) above the average plant canopy height. Control plants were sprayed in the same manner with the solvent blank.
(§4) The treated plants and control plants were placed in a greenhouse as described above and watered by sub-irrigation to prevent wash-off of the test compounds. After approximately 2 weeks, the condition of the test plants as compared with that of the untreated plants was determined visually and scored on a scale of 0 to 100 percent where 0 corresponds to no injury or growth inhibition and 100 corresponds to complete kill.
The following equation was used to calculate the expected activity of mixtures containing two active ingredients, A and B: […]

[2] = system: IPOHE (Ipomoea hederacea Jacq., ivyleaf morningglory); test: Example I postemergence foliar-applied mixtures, direct seeded rice weeds, greenhouse: IPOHE; details: glyphosate DMA salt (Durango DMA) alone, 105 gae/ha
Experimental: (§5) Seeds or nutlets of the desired test plant species were planted in a soil matrix prepared by mixing a loam or sandy loam soil (e.g., 28.6 percent silt, 18.8 percent clay, and 52.6 percent sand, with a pH of about 5.8 and an organic matter content of about 1.8 percent) and calcareous grit in an 80 to 20 ratio. The soil matrix was contained in plastic pots with a volume of 1 quart and a surface area of 83.6 square centimeters (cm^2). […] The plants were grown for 8-22 days in a greenhouse with an approximate 14 hr photoperiod which was maintained at about 29° C. during the day and 26° C. during the night. Nutrients (Peters Excel® 15-5-15 5-Ca 2-Mg and iron chelate) were applied in the irrigation solution as needed and water was added on a regular basis. Supplemental lighting was provided with overhead metal halide 1000-Watt lamps as necessary. The plants were employed for testing when they reached the first through fourth true leaf stage.
(§6) Treatments consisted of the acid or esters of 4-amino-3-chloro-5-fluoro-6-(4-chloro-2-fluoro-3-methoxy-phenyl)pyridine-2-carboxylic acid (Compound A), each formulated as an SC (suspension concentrate), and various herbicidal components alone and in combination. Forms of compound A were applied on an acid equivalent basis.
(§7) For treatments comprised of formulated compounds, measured amounts of compounds were placed individually in 25 mL glass vials and diluted in a volume of 1.25% (v/v) Agri-Dex® crop oil concentrated to obtain 12× stock solutions. […] Application solutions were prepared by adding an appropriate amount of each stock solution (e.g., 1 mL) and diluted to the appropriate final concentrations with the addition of 10 mL of an aqueous mixture of 1.25% (v/v) crop oil concentrate so that the final spray solutions contained 1.25+/−0.05% (v/v) crop oil concentrate.
(§8) All stock solutions and applications solutions were visually inspected for compound compatibility prior to application. Spray solutions were applied to the plant material with an overhead Mandel track sprayer equipped with a 8002E nozzles calibrated to deliver 187 L/ha over an application area of 0.503 m^2 at a spray height of 18 to 20 inches (46 to 50 cm) above average plant canopy height. Control plants were sprayed in the same manner with the solvent blank.
as §4, with “3” for “2”
(§9) Colby's equation was used to determine the herbicidal effects expected from the mixtures (Colby, S. R. 1967. Calculation of the synergistic and antagonistic response of herbicide combinations. Weeds 15:20-22.).

[3] = system: DIGSA (Digitaria sanguinalis (L.) Scop., large crabgrass); test: Example IV postemergence foliar-applied mixtures, general weed control, greenhouse: DIGSA; details: glyphosate DMA salt (Durango DMA) alone, 210 gae/ha
Experimental: as §1, with “Sun Gro Metro-Mix® 360 planting mixture, which typically has” for “a soil matrix prepared by mixing a loam or sandy loam soil (e.g., 43 percent silt, 19 percent clay, and 38 percent sand, with”, “6.0 to 6.8” for “about 8.1”, “30 percent,” for “1.5 percent) and calcareous grit in an 80 to 20 ratio. The soil matrix was contained”, “square” for “square centimters (cm^2) and a volume of 560 cubic”, “(cm^2).” for “(cm^3).”
as §6, with “the benzyl ester” for “esters”, “SC,” for “SC (suspension concentrate),”
as §2
as §7, with “(v/v) Agri-dex” for “(v/v) Agri-Dex®”, “solution (typically” for “solution (e.g.,”, “(v/v) Agri-dex” for “(v/v)”, “contained 1.25%” for “contained 1.25+/−0.05%”
as §3
as §4, with “3” for “2”
(§10) Colby's equation was used to determine the herbicidal effects expected from the mixtures (Colby, S. R. 1967. Calculation of the synergistic and antagonistic response of herbicide combinations. Weeds 15:20-22.) .

[4] = system: VIOTR (Viola tricolor L., wild violet); test: Example IV postemergence foliar-applied mixtures, general weed control, greenhouse: VIOTR; details: glyphosate DMA salt (Durango DMA) alone
Experimental: as §1, with “Sun Gro Metro-Mix® 360 planting mixture, which typically has” for “a soil matrix prepared by mixing a loam or sandy loam soil (e.g., 43 percent silt, 19 percent clay, and 38 percent sand, with”, “6.0 to 6.8” for “about 8.1”, “30 percent,” for “1.5 percent) and calcareous grit in an 80 to 20 ratio. The soil matrix was contained”, “square” for “square centimters (cm^2) and a volume of 560 cubic”, “(cm^2).” for “(cm^3).”
as §6, with “the benzyl ester” for “esters”, “SC,” for “SC (suspension concentrate),”
as §2
as §7, with “(v/v) Agri-dex” for “(v/v) Agri-Dex®”, “solution (typically” for “solution (e.g.,”, “(v/v) Agri-dex” for “(v/v)”, “contained 1.25%” for “contained 1.25+/−0.05%”
All stock solutions and applications solutions were visually inspected for compound compatibility prior to application. Compound requirements are based upon a 12 mL application volume at a rate of 187 liters per hectare (L/ha). […]
as §4, with “3” for “2”, “kill. […]” for “kill.”

[5] = system: SETFA (Setaria faberi Herrm., giant foxtail); test: Example IV postemergence foliar-applied mixtures, general weed control, greenhouse: SETFA; details: glyphosate DMA salt (Durango DMA) alone
Experimental: as §1, with “Sun Gro Metro-Mix® 360 planting mixture, which typically has” for “a soil matrix prepared by mixing a loam or sandy loam soil (e.g., 43 percent silt, 19 percent clay, and 38 percent sand, with”, “6.0 to 6.8” for “about 8.1”, “30 percent,” for “1.5 percent) and calcareous grit in an 80 to 20 ratio. The soil matrix was contained”, “square” for “square centimters (cm^2) and a volume of 560 cubic”, “(cm^2).” for “(cm^3).”
as §6, with “the benzyl ester” for “esters”, “SC,” for “SC (suspension concentrate),”
as §2
as §7, with “(v/v) Agri-dex” for “(v/v) Agri-Dex®”, “solution (typically” for “solution (e.g.,”, “(v/v) Agri-dex” for “(v/v)”, “contained 1.25%” for “contained 1.25+/−0.05%”
as §3
as §4, with “3” for “2”
as §10

[6] = system: CHEAL (Chenopodium album L., common lambsquarters); test: Example IV postemergence foliar-applied mixtures, general weed control, greenhouse: CHEAL; details: glyphosate DMA salt (Durango DMA) alone
Experimental: as §1, with “Sun Gro Metro-Mix® 360 planting mixture, which typically has” for “a soil matrix prepared by mixing a loam or sandy loam soil (e.g., 43 percent silt, 19 percent clay, and 38 percent sand, with”, “6.0 to 6.8” for “about 8.1”, “30 percent,” for “1.5 percent) and calcareous grit in an 80 to 20 ratio. The soil matrix was contained”, “square” for “square centimters (cm^2) and a volume of 560 cubic”, “(cm^2).” for “(cm^3).”
as §6, with “the benzyl ester” for “esters”, “SC,” for “SC (suspension concentrate),”
as §2
as §7, with “(v/v) Agri-dex” for “(v/v) Agri-Dex®”, “solution (typically” for “solution (e.g.,”, “(v/v) Agri-dex” for “(v/v)”, “contained 1.25%” for “contained 1.25+/−0.05%”
as §3
as §4, with “3” for “2”
as §10

[7] = system: DIGSA (Digitaria sanguinalis (L.) Scop., large crabgrass); test: Example I postemergence foliar-applied mixtures, direct seeded rice weeds, greenhouse: DIGSA; details: glyphosate DMA salt (Durango DMA) alone, 210 gae/ha
Experimental: as §5, §6, §7, §8
as §4, with “3” for “2”
as §9

## O=C(O)CNCP(=O)(O)O [Glyphosate DMA Salt, N-(phosphonomethyl)glycine, reference compound]
[1]; 105 gae/ha
  Visual Weed Control (%) - 16 DAA SORHA Obs: 0%
[1]; 210 gae/ha
  Visual Weed Control (%) - 16 DAA SORHA Obs: 10%
[1]; 420 gae/ha
  Visual Weed Control (%) - 16 DAA SORHA Obs: 25%
[2]
  Visual Weed Control (%) - 21 DAA IPOHE Obs: 30%
[3]
  Visual Weed Control (%) - 18 DAA DIGSA Obs: 40%
[4]; 210 gae/ha
  Visual Weed Control (%) - 18 DAA VIOTR Obs: 60%
[4]; 420 gae/ha
  Visual Weed Control (%) - 18 DAA VIOTR Obs: 85%
[5]; 210 gae/ha
  VisualWeed Control (%) - 18 DAA SETFA Obs: 10%
[5]; 420 gae/ha
  VisualWeed Control (%) - 18 DAA SETFA Obs: 90%
[6]; 420 gae/ha
  Visual Weed Control (%) - 18 DAA CHEAL Obs: 0%
[6]; 840 gae/ha
  Visual Weed Control (%) - 18 DAA CHEAL Obs: 30%
[7]
  Visual Weed Control (%) - 21 DAA DIGSA Obs: 75%
